Patent US10287305B2, “Substituted piperidine compound and use thereof” (Takeda Pharmaceutical Company Limited, priority 2016, dated 2019)

Target: human orexin type 2 receptor (hOX2R) (Homo sapiens (Human), UniProt O43614)
Assay: Measurement of orexin type 2 receptor agonist activity (Experimental Example 2-1, FLIPR TETRA, intracellular Ca2+)
Type: cell-based
Settings: CHO dhfr- cells expressing hOX2R; for Emax at 30 µM: value at 30 uM concentration, orexin B as full agonist = 100%; for Emax: read-out: Emax (%)
Text: To obtain a cell clone stably expressing human orexin type 2 receptor, human orexin type 2 receptor cDNA was inserted into pcDNA3.1(+) plasmid vector (Invitrogen), and a plasmid DNA for expression of human orexin type 2 receptor (pcDNA3.1(+)/hOX2R) was cloned. The plasmid DNA was introduced into CHO-dhfr cell by an electroporation method, and human orexin type 2 receptor expressing clone cells were obtained by limiting dilution method by using G418 drug resistance as a selection marker.
Chinese hamster ovary (CHO) dhfr-cells forcibly expressing human orexin type 2 receptor (hOX2R) were seeded in each well of Black clear bottom plate (384 wells) (Becton, Dickinson and Company) by 10,000 cells, and cultured for 16 hr in an MEM-alpha (Nikken-Bio Co., Ltd.) medium containing 100 U/ml penicillin, 100 μg/ml streptomycin, […] G418 (all above Invitrogen), and 10% fetal calf serum (Thermo), under the conditions of 37° C., 5% CO2. […] A test compound was dissolved in dimethyl sulfoxide to 10 mM, and then diluted with assay buffer 2 (20 mM HEPES, Hanks' balanced salt solution (Invitrogen), 0.1% bovine serum albumin). For the reaction, a test compound solution (10 μL) was added using Fluorescent Imaging Plate Reader TETRA (FLIPR TETRA; manufactured by Molecular Devices), a fluorescence value (excitation wavelength 488 nm, measurement wavelength 570 nm) of each well was measured every one second for 1 min, and the agonist activity was determined using the area of the fluorescence value as an indicator of intracellular Ca^2+ concentration.

[1] = agonist activity, 10 nM human orexin B = 100%

Sequence of human orexin type 2 receptor (hOX2R) (O43614 whole entry): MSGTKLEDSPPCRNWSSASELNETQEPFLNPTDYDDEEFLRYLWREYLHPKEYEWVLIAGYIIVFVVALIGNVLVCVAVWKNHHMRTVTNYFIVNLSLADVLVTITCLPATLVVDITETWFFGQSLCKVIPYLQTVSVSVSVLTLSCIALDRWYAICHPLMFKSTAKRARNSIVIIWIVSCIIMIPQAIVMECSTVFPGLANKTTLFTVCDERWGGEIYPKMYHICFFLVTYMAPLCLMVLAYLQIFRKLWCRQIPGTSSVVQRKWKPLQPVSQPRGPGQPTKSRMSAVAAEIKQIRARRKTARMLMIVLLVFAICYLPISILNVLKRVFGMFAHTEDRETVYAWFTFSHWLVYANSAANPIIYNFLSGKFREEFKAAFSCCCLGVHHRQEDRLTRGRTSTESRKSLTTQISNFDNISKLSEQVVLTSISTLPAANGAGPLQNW

SMILES	EC50 [1] [nM]	Emax at 30 µM [%]	EC50 (FLIPR TETRA, Fluo-4AM) [nM]	Emax (FLIPR TETRA, Fluo-4AM) [%]
CC(=O)N1CCC[C@H](NS(C)(=O)=O)[C@@H]1CO[C@H]1C[C@@H](c2ccccc2)C1 (relative stereo) [Example 114, N-(cis-1-acetyl-2-(((cis-3-phenylcyclobutyl)oxy)methyl)-piperidin-3-yl)methanesulfonamidea]	3500	79		
CS(=O)(=O)N[C@H]1CCCN[C@H]1CO[C@H]1CC[C@@H](c2ccccc2F)CC1 (relative stereo) [Example 115, N-(cis-2-(((cis-4-(2-fluorophenyl)cyclohexyl)oxy)methyl)piperidin-3-yl)methanesulfonamide]	770	97		
CS(=O)(=O)N[C@H]1CCCN(C(=O)C2CCOCC2)[C@H]1CO[C@H]1CC[C@@H](c2ccccc2)CC1 (relative stereo) [Example 121, N-(cis-2-(((cis-4-phenylcyclohexyl)oxy)methyl)-1-(tetrahydro-2H-pyran-4-ylcarbonyl)piperidin-3-yl)methanesulfonamide]			8.8	111
CCNC(=O)N1CCC[C@H](NS(C)(=O)=O)[C@@H]1COC1CCN(c2ccccc2)CC1 (relative stereo) [Example 123, cis-N-ethyl-3-((methylsulfonyl)amino)-2-(((1-phenylpiperidin-4-yl)oxy)methyl)piperidine-1-carboxamide]			390	120
CCNC(=O)N1CCC[C@H](NS(C)(=O)=O)[C@@H]1COC1CCC(OC)CC1 (relative stereo) [Example 126, cis-N-ethyl-2-(((4-methoxycyclohexyl)oxy)methyl)-3-((methylsulfonyl)amino)piperidine-1-carboxamide]			2600	85

Continued by falling EC50 [1], values first:

EC50 [1] [nM]	Emax at 30 µM [%]	EC50 (FLIPR TETRA, Fluo-4AM) [nM]	Emax (FLIPR TETRA, Fluo-4AM) [%]	SMILES
420	94			CC(=O)N1CCC[C@H](NS(C)(=O)=O)[C@@H]1CO[C@H]1CC[C@@H](c2ccc(F)cc2)CC1 (relative stereo) [Example 112, N-(cis-1-acetyl-2-(((cis-4-(4-fluorophenyl)cyclohexyl)oxy)methyl)piperidin-3-yl)methanesulfonamide]
61	96			CS(=O)(=O)N[C@H]1CCCN(C(=O)C2COC2)[C@H]1CO[C@H]1CC[C@@H](c2ccccc2)CC1 (relative stereo) [Example 120, N-(cis-1-(oxetan-3-ylcarbonyl)-2-(((cis-4-phenylcyclohexyl)oxy)methyl)piperidin-3-yl)methanesulfonamide]
59	93			CCNC(=O)N1CCC[C@H](NS(C)(=O)=O)[C@@H]1CO[C@H]1C[C@@H](c2ccccc2)C1 (relative stereo) [Example 113, cis-N-ethyl-3-((methylsulfonyl)amino)-2-(((cis-3-phenylcyclobutyl)oxy)methyl)piperidine-1-carboxamide]
30	107			COCC(=O)N1CCC[C@H](NS(C)(=O)=O)[C@@H]1CO[C@H]1CC[C@@H](c2ccccc2)CC1 (relative stereo) [Example 119, N-(cis-1-(methoxyacetyl)-2-(((cis-4-phenylcyclohexyl)oxy)methyl)piperidin-3-yl)methanesulfonamide]
4.6	105			CCNC(=O)N1CCC[C@H](NS(C)(=O)=O)[C@@H]1COC1CCN(c2ncccn2)CC1 (relative stereo) [Example 118, cis-N-ethyl-3-((methylsulfonyl)amino)-2-(((1-(pyrimidin-2-yl)piperidin-4-yl)oxy)methyl)piperidine-1-carboxamide]
0.12	91			CCNC(=O)N1CCC[C@H](NS(C)(=O)=O)[C@@H]1CO[C@H]1CC[C@@H](c2ccccc2F)CC1 (relative stereo) [Example 117, cis-N-ethyl-2-(((cis-4-(2-fluorophenyl)cyclohexyl)oxy)-methyl)-3-((methylsulfonyl)amino)piperidine-1-carboxamide]
